PubChem BioAssay AID330 (DTP/NCI, 2004)
“And” between values parts separate entries of the source, which are not always exact repeats. Equal entries are not always repeated. Inconclusive results and toxic doses are left out. Rule for the calls: active = survival T/C of 150% or more; inactive = T/C below 125% in these data.

Tested on: P388 leukemia ip, CD2F1 mice, survival T/C
Experiment: NCI In Vivo Anticancer Drug Screen. Data for tumor model P388 Leukemia (intraperitoneal) in CD2F1 (CDF1) mice
Conditions: endpoint: median survival time, higher = longer survival
Outline: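 Mice carrying the transplanted tumor received test compound or vehicle. Survival was recorded in each group, and the value is the treated-group measurement divided by that of the vehicle-treated control group.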

[1] = dose: 12.5 mg/kg/injection, schedule: Q01DX009 (ip), vehicle: Klucel (hydroxypropylcellulose) (HPC)
[2] = dose: 25.0 mg/kg/injection, schedule: Q01DX009 (ip), vehicle: Klucel (hydroxypropylcellulose) (HPC)
[3] = dose: 50.0 mg/kg/injection, schedule: Q01DX009 (ip), vehicle: Klucel (hydroxypropylcellulose) (HPC)
[4] = dose: 50.0 mg/kg/injection, schedule: Q01DX005 (ip), vehicle: saline with Tween-80
[5] = dose: 50.0 mg/kg/injection, schedule: Q01DX009 (ip), vehicle: saline with Tween-80
[6] = dose: 100.0 mg/kg/injection, schedule: Q01DX009 (ip), vehicle: saline with Tween-80
[7] = dose: 200.0 mg/kg/injection, schedule: Q01DX009 (ip), vehicle: saline with Tween-80
[8] = dose: 12.5 mg/kg/injection, schedule: Q01DX009 (ip), vehicle: saline
[9] = dose: 25.0 mg/kg/injection, schedule: Q01DX009 (ip), vehicle: saline
[10] = dose: 50.0 mg/kg/injection, schedule: Q01DX009 (ip), vehicle: saline
[11] = dose: 100.0 mg/kg/injection, schedule: Q01DX005 (ip), vehicle: saline with Tween-80
[12] = dose: 200.0 mg/kg/injection, schedule: Q01DX005 (ip), vehicle: saline with Tween-80

Measured: T/C

C/C=C(\C)C(=O)OC1C2C(C)=CC(O)C(O)C2(C)C2C3(O)OCC24C1OC(=O)C(O)C4C(C)C3O (centres undefined)
inactive: dose: 2.5 mg/kg/injection, schedule: Q01DX005 (ip), vehicle: Klucel (hydroxypropylcellulose) (HPC) 108 % of control | dose: 5.0 mg/kg/injection, schedule: Q01DX005 (ip), vehicle: Klucel (hydroxypropylcellulose) (HPC) 102 % of control | dose: 10.0 mg/kg/injection, schedule: Q01DX005 (ip), vehicle: Klucel (hydroxypropylcellulose) (HPC) 100 % of control | dose: 20.0 mg/kg/injection, schedule: Q01DX005 (ip), vehicle: Klucel (hydroxypropylcellulose) (HPC) 105 % of control

CC(=O)Nc1ccc(Nc2nc(Cl)nc(Nc3ccc(NC(C)=O)cc3)n2)cc1
inactive: dose: 30.0 mg/kg/injection, schedule: Q01DX005 (ip), vehicle: Klucel (hydroxypropylcellulose) (HPC) 100 % of control | dose: 60.0 mg/kg/injection, schedule: Q01DX005 (ip), vehicle: Klucel (hydroxypropylcellulose) (HPC) 89 % of control and 97 % of control | dose: 120.0 mg/kg/injection, schedule: Q01DX005 (ip), vehicle: Klucel (hydroxypropylcellulose) (HPC) 93 % of control | dose: 240.0 mg/kg/injection, schedule: Q01DX005 (ip), vehicle: Klucel (hydroxypropylcellulose) (HPC) 89 % of control

Cc1ccc(CCN2CSC(=S)N(CCc3ccc(C)cc3)C2)cc1
inactive: [1] 101 % of control | [2] 96 % of control | [3] 100 % of control | dose: 50.0 mg/kg/injection, schedule: Q01DX009 (ip), vehicle: other 96 % of control

CSc1nc(Cl)c(Cl)c(C(F)(F)F)n1
inactive: [4] 103 % of control

COc1cc(Cc2nnc(N)[nH]c2=O)cc(OC)c1OC
inactive: dose: 6.25 mg/kg/injection, schedule: Q01DX009 (ip), vehicle: saline with Tween-80 97 % of control | dose: 12.5 mg/kg/injection, schedule: Q01DX009 (ip), vehicle: saline with Tween-80 91 % of control | dose: 100.0 mg/kg/injection, schedule: Q01DX001 (ip), vehicle: Klucel (hydroxypropylcellulose) (HPC) 116 % of control | dose: 200.0 mg/kg/injection, schedule: Q01DX001 (ip), vehicle: Klucel (hydroxypropylcellulose) (HPC) 89 % of control | dose: 400.0 mg/kg/injection, schedule: Q01DX001 (ip), vehicle: Klucel (hydroxypropylcellulose) (HPC) 100 % of control

O=C1CCCC12CCCC2=O
inactive: [5] 103 % of control | [6] 100 % of control | [7] 109 % of control

CC(=O)Oc1cc2c3c(c1)-c1c(ccc(OC(C)=O)c1OC(C)=O)CC3NCC2 (centres undefined)
inactive: dose: 3.13 mg/kg/injection, schedule: Q04DX003 (ip), vehicle: DMSO 101 % of control | dose: 6.25 mg/kg/injection, schedule: Q04DX003 (ip), vehicle: DMSO 101 % of control | dose: 12.5 mg/kg/injection, schedule: Q04DX003 (ip), vehicle: DMSO 103 % of control | dose: 25.0 mg/kg/injection, schedule: Q04DX003 (ip), vehicle: DMSO 108 % of control | dose: 50.0 mg/kg/injection, schedule: Q04DX003 (ip), vehicle: DMSO 108 % of control | dose: 100.0 mg/kg/injection, schedule: Q04DX003 (ip), vehicle: DMSO 99 % of control

O=c1c2ccccc2nc(/C=N/NC(=S)Nc2ccc(Cl)cc2)n1-c1ccc(Br)cc1
inactive: dose: 100.0 mg/kg/injection, schedule: Q04DX002 (ip), vehicle: saline with Tween-80 96 % of control | dose: 200.0 mg/kg/injection, schedule: Q04DX002 (ip), vehicle: saline with Tween-80 88 % of control

O=[N+]([O-])c1ncccc1NCCN1CCCC1
inactive: [8] 104 % of control | [9] 100 % of control | [10] 106 % of control and 108 % of control

CCOC(=O)CC1CC(C)(C(=O)OCC)C(=O)CC1=O (centres undefined)
inactive: [4] 102 % of control | [11] 104 % of control | [12] 95 % of control

Cc1ccc2nc(CC(=O)c3ccccc3)c(CC(=O)c3ccccc3)nc2c1
inactive: dose: 60.0 mg/kg/injection, schedule: Q01DX005 (ip), vehicle: saline with Tween-80 93 % of control | dose: 120.0 mg/kg/injection, schedule: Q01DX005 (ip), vehicle: saline with Tween-80 94 % of control | dose: 240.0 mg/kg/injection, schedule: Q01DX005 (ip), vehicle: saline with Tween-80 96 % of control

Clc1ccc(/C=C/c2ccnnc2)cc1
inactive: [10] 106 % of control | dose: 100.0 mg/kg/injection, schedule: Q01DX009 (ip), vehicle: saline 106 % of control | dose: 200.0 mg/kg/injection, schedule: Q01DX009 (ip), vehicle: saline 91 % of control

CC1=NN(c2ccccc2)C(=O)/C1=C1\SS/C(=C2\C(=O)N(c3ccccc3)N=C2C)S1
inactive: [1] 100 % of control | [2] 103 % of control | [3] 121 % of control and 90 % of control | dose: 100.0 mg/kg/injection, schedule: Q01DX009 (ip), vehicle: Klucel (hydroxypropylcellulose) (HPC) 92 % of control and 94 % of control | dose: 200.0 mg/kg/injection, schedule: Q01DX009 (ip), vehicle: Klucel (hydroxypropylcellulose) (HPC) 102 % of control

CC(=O)O[C@@H]1[C@H](C)[C@@H]2CC(=O)O[C@@H]3[C@H](OC(=O)C=C(C)C)[C@H]4C(C)=CC(=O)[C@@H](OC(C)=O)[C@]4(C)[C@H]4[C@@]1(O)OC[C@@]342
inactive: dose: 1.25 mg/kg/injection, schedule: Q01DX009 (ip), vehicle: Klucel (hydroxypropylcellulose) (HPC) 104 % of control | dose: 2.5 mg/kg/injection, schedule: Q01DX009 (ip), vehicle: Klucel (hydroxypropylcellulose) (HPC) 107 % of control | dose: 5.0 mg/kg/injection, schedule: Q01DX009 (ip), vehicle: Klucel (hydroxypropylcellulose) (HPC) 107 % of control | dose: 10.0 mg/kg/injection, schedule: Q01DX009 (ip), vehicle: Klucel (hydroxypropylcellulose) (HPC) 107 % of control

O=C(O)c1cc2ccccc2c(Br)c1O.O=[N+]([O-])C1CCC(O)C2[N-]CCCC21.[Cu+]
inactive: dose: 6.25 mg/kg/injection, schedule: Q01DX005 (ip), vehicle: saline with Tween-80 97 % of control | dose: 12.5 mg/kg/injection, schedule: Q01DX005 (ip), vehicle: saline with Tween-80 100 % of control and 106 % of control | dose: 25.0 mg/kg/injection, schedule: Q01DX005 (ip), vehicle: saline with Tween-80 106 % of control and 98 % of control

CCCCn1c2c(c3ccccc3c1=O)C(=O)c1ccccc1-2
inactive: [4] 92 % of control | [11] 91 % of control | [12] 88 % of control

CC(=O)CC(=O)c1ccc(C)cc1.CC(=O)CC(=O)c1ccc(C)cc1.[Cu]
inactive: dose: 25.0 mg/kg/injection, schedule: Q01DX009 (ip), vehicle: saline with Tween-80 98 % of control | [5] 108 % of control and 113 % of control

CCN(CC)CCN1c2ccccc2Sc2c1ccc1ccccc21
inactive: dose: 50.0 mg/kg/injection, schedule: Q01DX005 (ip), vehicle: saline + Tween-80 + alcohol 112 % of control | dose: 100.0 mg/kg/injection, schedule: Q01DX005 (ip), vehicle: saline + Tween-80 + alcohol 107 % of control | dose: 200.0 mg/kg/injection, schedule: Q01DX005 (ip), vehicle: saline + Tween-80 + alcohol 107 % of control

O=c1cccccc1O
inactive: [8] 105 % of control and 107 % of control | [9] 100 % of control

CSC(=S)N/N=C/c1cccn1C
inactive: [5] 100 % of control | [6] 91 % of control | [7] 115 % of control

COc1ccc(C(F)C(N)C#N)cc1 (centres undefined)
inactive: dose: 60.0 mg/kg/injection, schedule: Q01DX005 (ip), vehicle: saline 109 % of control | dose: 120.0 mg/kg/injection, schedule: Q01DX005 (ip), vehicle: saline 98 % of control | dose: 240.0 mg/kg/injection, schedule: Q01DX005 (ip), vehicle: saline 107 % of control
